Measurements from ChEMBL document CHEMBL4196212, “Targeting Cytochrome P450 (CYP) 1B1 Enzyme with Four Series of A-Ring Substituted Estrane Derivatives: Design, Synthesis, Inhibitory Activity, and Selectivity” (J Med Chem, 2018).

Experiments:
CYP1B1 [1] = molecular target: T1, CYP1B1 (Homo sapiens, UniProt Q16678); assay: Inhibition of recombinant human CYP1B1 at 3 uM incubated for 45 mins using 7-ethyl-O-resorufin substrate in presence of NADPH regenerating system by fluorescence based ethoxyresorufin-O-deethylase assay; settings: recombinant human CYP1B1, probe 7-ethyl-O-resorufin (7-ethoxyresorufin)
T1 sequence (Q16678 whole entry): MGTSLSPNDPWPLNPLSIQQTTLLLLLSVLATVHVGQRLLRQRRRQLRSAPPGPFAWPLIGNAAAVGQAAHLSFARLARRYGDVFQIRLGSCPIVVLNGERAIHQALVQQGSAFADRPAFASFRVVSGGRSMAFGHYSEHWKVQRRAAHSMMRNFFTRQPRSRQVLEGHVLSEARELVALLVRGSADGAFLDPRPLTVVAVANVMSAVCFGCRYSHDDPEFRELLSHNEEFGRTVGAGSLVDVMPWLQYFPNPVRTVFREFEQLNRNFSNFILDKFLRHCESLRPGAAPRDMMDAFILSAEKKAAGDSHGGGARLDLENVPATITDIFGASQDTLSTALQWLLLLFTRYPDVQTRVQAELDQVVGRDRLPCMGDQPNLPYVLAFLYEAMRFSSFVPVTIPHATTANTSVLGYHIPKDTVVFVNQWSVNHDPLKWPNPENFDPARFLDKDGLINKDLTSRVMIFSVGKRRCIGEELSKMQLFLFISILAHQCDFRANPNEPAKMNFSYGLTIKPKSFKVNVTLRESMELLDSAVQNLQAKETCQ

CYP1A1 [2] = molecular target: T2, CYP1A1 (Homo sapiens, UniProt P04798); assay: Inhibition of recombinant human CYP1A1 at 0.3 uM incubated for 25 mins using 7-ethyl-O-resorufin substrate in presence of NADPH regenerating system by fluorescence based ethoxyresorufin-O-deethylase assay; type: ADME; settings: recombinant human CYP1A1, probe 7-ethyl-O-resorufin (7-ethoxyresorufin)
T2 sequence (P04798 whole entry): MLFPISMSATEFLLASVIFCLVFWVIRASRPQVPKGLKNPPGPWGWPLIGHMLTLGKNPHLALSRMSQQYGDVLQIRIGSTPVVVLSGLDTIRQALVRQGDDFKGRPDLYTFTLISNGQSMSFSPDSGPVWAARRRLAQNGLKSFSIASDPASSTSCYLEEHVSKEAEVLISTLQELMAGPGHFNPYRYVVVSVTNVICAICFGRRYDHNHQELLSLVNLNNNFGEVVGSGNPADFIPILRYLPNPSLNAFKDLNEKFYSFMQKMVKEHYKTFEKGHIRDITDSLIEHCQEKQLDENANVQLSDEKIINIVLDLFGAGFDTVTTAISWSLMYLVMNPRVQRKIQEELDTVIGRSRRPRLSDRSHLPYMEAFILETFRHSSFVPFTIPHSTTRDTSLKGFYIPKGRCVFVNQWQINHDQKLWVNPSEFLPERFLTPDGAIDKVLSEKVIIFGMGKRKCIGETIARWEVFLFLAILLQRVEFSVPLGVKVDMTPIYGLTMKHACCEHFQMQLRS

CYP1B1 [3] = molecular target: T1, CYP1B1; assay: Inhibition of recombinant human CYP1B1 at 0.3 uM incubated for 45 mins using 7-ethyl-O-resorufin substrate in presence of NADPH regenerating system by fluorescence based ethoxyresorufin-O-deethylase assay; settings: recombinant human CYP1B1, probe 7-ethyl-O-resorufin (7-ethoxyresorufin)
CYP1A1 [4] = molecular target: T2, CYP1A1; assay: Inhibition of recombinant human CYP1A1 at 3 uM incubated for 25 mins using 7-ethyl-O-resorufin substrate in presence of NADPH regenerating system by fluorescence based ethoxyresorufin-O-deethylase assay; type: ADME; settings: recombinant human CYP1A1, probe 7-ethyl-O-resorufin (7-ethoxyresorufin)

COc1ccc(-c2cc3c(cc2OC)CC[C@@H]2[C@@H]3CC[C@@]3(C)[C@H]2CC[C@]3(C)O)cc1
inhibition at 0.75 h, 3 µM (CYP1B1 [1]): 46%
inhibition at 25 min, 0.3 µM (CYP1A1 [2]): 2%
inhibition at 0.75 h, 0.3 µM (CYP1B1 [3]): 8%
inhibition at 25 min, 3 µM (CYP1A1 [4]): 6%

COc1cccc(-c2cc3c(cc2O)CC[C@@H]2[C@@H]3CC[C@]3(C)C(=O)CC[C@@H]23)c1
inhibition at 0.75 h, 3 µM (CYP1B1 [1]): 81%
inhibition at 0.75 h, 0.3 µM (CYP1B1 [3]): 48%

C[C@]12CC[C@@H]3c4cc(-c5cccc(F)c5)c(O)cc4CC[C@H]3[C@@H]1CC[C@@H]2O
inhibition at 0.75 h, 3 µM (CYP1B1 [1]): 101%
inhibition at 25 min, 0.3 µM (CYP1A1 [2]): 12%
inhibition at 0.75 h, 0.3 µM (CYP1B1 [3]): 88%
inhibition at 25 min, 3 µM (CYP1A1 [4]): 48%

C[C@]12CC[C@@H]3c4cc(-c5ccc(F)c(F)c5)c(O)cc4CC[C@H]3[C@@H]1CCC2=O
inhibition at 0.75 h, 3 µM (CYP1B1 [1]): 100%
inhibition at 25 min, 0.3 µM (CYP1A1 [2]): 1%
inhibition at 0.75 h, 0.3 µM (CYP1B1 [3]): 77%
inhibition at 25 min, 3 µM (CYP1A1 [4]): 15%

COc1ccc(-c2cc3c(cc2O)CC[C@@H]2[C@@H]3CC[C@]3(C)C(=O)CC[C@@H]23)cc1
inhibition at 0.75 h, 3 µM (CYP1B1 [1]): 103%
inhibition at 25 min, 0.3 µM (CYP1A1 [2]): 8%
inhibition at 0.75 h, 0.3 µM (CYP1B1 [3]): 95%
inhibition at 25 min, 3 µM (CYP1A1 [4]): 18%

C[C@]12CC[C@@H]3c4cc(-c5cccnc5)c(O)cc4CC[C@H]3[C@@H]1CCC2=O
inhibition at 0.75 h, 3 µM (CYP1B1 [1]): 90%

C[C@]12CC[C@@H]3c4cc(-c5ccc(Cl)cc5)c(O)cc4CC[C@H]3[C@@H]1CC[C@@H]2O
inhibition at 0.75 h, 3 µM (CYP1B1 [1]): 99%
inhibition at 25 min, 0.3 µM (CYP1A1 [2]): 12%
inhibition at 0.75 h, 0.3 µM (CYP1B1 [3]): 96%
inhibition at 25 min, 3 µM (CYP1A1 [4]): 63%

C[S+]([O-])c1ccc2c(c1)CC[C@@H]1[C@@H]2CC[C@]2(C)[C@@H](O)CC[C@@H]12 (stereo not given in full)
inhibition at 0.75 h, 3 µM (CYP1B1 [1]): 25%
inhibition at 0.75 h, 0.3 µM (CYP1B1 [3]): 10%

C#C[C@]1(O)CC[C@H]2[C@@H]3CCc4cc(OC)c(-c5ccc(OC)cc5)cc4[C@H]3CC[C@@]21C
inhibition at 0.75 h, 3 µM (CYP1B1 [1]): 55%
inhibition at 25 min, 0.3 µM (CYP1A1 [2]): 4%
inhibition at 0.75 h, 0.3 µM (CYP1B1 [3]): 6%
inhibition at 25 min, 3 µM (CYP1A1 [4]): 9%

C[C@]12CC[C@@H]3c4ccc(SCc5cccnc5)cc4CC[C@H]3[C@@H]1CCC2=O
inhibition at 0.75 h, 3 µM (CYP1B1 [1]): 87%
inhibition at 25 min, 0.3 µM (CYP1A1 [2]): 9%
inhibition at 0.75 h, 0.3 µM (CYP1B1 [3]): 48%
inhibition at 25 min, 3 µM (CYP1A1 [4]): 36%

CSc1ccc2c(c1)CC[C@@H]1[C@@H]2CC[C@]2(C)C(=O)CC[C@@H]12
inhibition at 0.75 h, 3 µM (CYP1B1 [1]): 34%
inhibition at 0.75 h, 0.3 µM (CYP1B1 [3]): 14%

C[C@]12CC[C@@H]3c4cc(-c5cccc(N)c5)c(O)cc4CC[C@H]3[C@@H]1CCC2=O
inhibition at 0.75 h, 3 µM (CYP1B1 [1]): 55%
inhibition at 0.75 h, 0.3 µM (CYP1B1 [3]): 36%

C[C@]12CC[C@@H]3c4cc(-c5cccnc5)c(O)cc4CC[C@H]3[C@@H]1CC[C@@H]2O
inhibition at 0.75 h, 3 µM (CYP1B1 [1]): 100%
inhibition at 25 min, 0.3 µM (CYP1A1 [2]): 53%
inhibition at 25 min, 3 µM (CYP1A1 [4]): 77%

C[C@]12CC[C@@H]3c4cc(-c5ccc(F)cc5)c(O)cc4CC[C@H]3[C@@H]1CCC2=O
inhibition at 0.75 h, 3 µM (CYP1B1 [1]): 101%
inhibition at 25 min, 0.3 µM (CYP1A1 [2]): 2%
inhibition at 0.75 h, 0.3 µM (CYP1B1 [3]): 71%
inhibition at 25 min, 3 µM (CYP1A1 [4]): 8%

C[C@]12CC[C@@H]3c4cc(-c5cccc(O)c5)c(O)cc4CC[C@H]3[C@@H]1CC[C@@H]2O
inhibition at 0.75 h, 3 µM (CYP1B1 [1]): 100%
inhibition at 25 min, 0.3 µM (CYP1A1 [2]): 10%
inhibition at 0.75 h, 0.3 µM (CYP1B1 [3]): 96%
inhibition at 25 min, 3 µM (CYP1A1 [4]): 57%

COc1ccc(-c2cc3c(cc2OC)CC[C@@H]2[C@@H]3CC[C@]3(C)C(=O)CC[C@@H]23)cc1
inhibition at 0.75 h, 3 µM (CYP1B1 [1]): 79%
inhibition at 25 min, 0.3 µM (CYP1A1 [2]): 1%
inhibition at 0.75 h, 0.3 µM (CYP1B1 [3]): 38%
inhibition at 25 min, 3 µM (CYP1A1 [4]): 4%

C[C@]12CC[C@@H]3c4cc(-c5cccc(O)c5)c(O)cc4CC[C@H]3[C@@H]1CCC2=O
inhibition at 0.75 h, 3 µM (CYP1B1 [1]): 103%
inhibition at 25 min, 0.3 µM (CYP1A1 [2]): 10%
inhibition at 0.75 h, 0.3 µM (CYP1B1 [3]): 92%
inhibition at 25 min, 3 µM (CYP1A1 [4]): 39%

C[C@]12CC[C@@H]3c4cc(-c5ccc(O)cc5)c(O)cc4CC[C@H]3[C@@H]1CCC2=O
inhibition at 0.75 h, 3 µM (CYP1B1 [1]): 30%
inhibition at 0.75 h, 0.3 µM (CYP1B1 [3]): 19%

C[C@]12CC[C@@H]3c4cc(-c5cccc(F)c5)c(O)cc4CC[C@H]3[C@@H]1CCC2=O
inhibition at 0.75 h, 3 µM (CYP1B1 [1]): 101%
inhibition at 25 min, 0.3 µM (CYP1A1 [2]): 3%
inhibition at 0.75 h, 0.3 µM (CYP1B1 [3]): 67%
inhibition at 25 min, 3 µM (CYP1A1 [4]): 23%

C[C@]12CC[C@@H]3c4cc(-c5cccc(Cl)c5)c(O)cc4CC[C@H]3[C@@H]1CCC2=O
inhibition at 0.75 h, 3 µM (CYP1B1 [1]): 100%
inhibition at 25 min, 0.3 µM (CYP1A1 [2]): 5%
inhibition at 0.75 h, 0.3 µM (CYP1B1 [3]): 74%
inhibition at 25 min, 3 µM (CYP1A1 [4]): 11%

C[C@]12CC[C@@H]3c4ccc(S(C)(=O)=O)cc4CC[C@H]3[C@@H]1CCC2=O
inhibition at 0.75 h, 3 µM (CYP1B1 [1]): 7%
inhibition at 0.75 h, 0.3 µM (CYP1B1 [3]): 7%

C[C@]12CC[C@@H]3c4ccc(S(C)(=O)=O)cc4CC[C@H]3[C@@H]1CC[C@@H]2O
inhibition at 0.75 h, 3 µM (CYP1B1 [1]): 5%
inhibition at 0.75 h, 0.3 µM (CYP1B1 [3]): 0%

CSc1ccc2c(c1)CC[C@@H]1[C@@H]2CC[C@]2(C)[C@@H](O)CC[C@@H]12
inhibition at 0.75 h, 3 µM (CYP1B1 [1]): 26%
inhibition at 0.75 h, 0.3 µM (CYP1B1 [3]): 5%

C[C@]12CC[C@@H]3c4cc(-c5ccncc5)c(O)cc4CC[C@H]3[C@@H]1CCC2=O
inhibition at 0.75 h, 3 µM (CYP1B1 [1]): 55%

C[S+]([O-])c1ccc2c(c1)CC[C@@H]1[C@@H]2CC[C@]2(C)C(=O)CC[C@@H]12 (stereo not given in full)
inhibition at 0.75 h, 3 µM (CYP1B1 [1]): 57%
inhibition at 0.75 h, 0.3 µM (CYP1B1 [3]): 16%

C[C@]12CC[C@@H]3c4cc(-c5ccccc5)c(O)cc4CC[C@H]3[C@@H]1CCC2=O
inhibition at 0.75 h, 3 µM (CYP1B1 [1]): 101%
inhibition at 25 min, 0.3 µM (CYP1A1 [2]): 5%
inhibition at 0.75 h, 0.3 µM (CYP1B1 [3]): 69%
inhibition at 25 min, 3 µM (CYP1A1 [4]): 16%

COc1ccc(-c2cc3c(cc2O)CC[C@@H]2[C@@H]3CC[C@]3(C)[C@@H](O)CC[C@@H]23)cc1
inhibition at 0.75 h, 3 µM (CYP1B1 [1]): 100%
inhibition at 25 min, 0.3 µM (CYP1A1 [2]): 14%
inhibition at 0.75 h, 0.3 µM (CYP1B1 [3]): 97%
inhibition at 25 min, 3 µM (CYP1A1 [4]): 51%

C[C@]12CC[C@@H]3c4cc(-c5ccccc5)c(O)cc4CC[C@H]3[C@@H]1CC[C@@H]2O
inhibition at 0.75 h, 3 µM (CYP1B1 [1]): 101%
inhibition at 25 min, 0.3 µM (CYP1A1 [2]): 9%
inhibition at 0.75 h, 0.3 µM (CYP1B1 [3]): 82%
inhibition at 25 min, 3 µM (CYP1A1 [4]): 45%

C[C@]12CC[C@@H]3c4cc(-c5ccc(Cl)cc5)c(O)cc4CC[C@H]3[C@@H]1CCC2=O
inhibition at 0.75 h, 3 µM (CYP1B1 [1]): 101%
inhibition at 25 min, 0.3 µM (CYP1A1 [2]): 9%
inhibition at 0.75 h, 0.3 µM (CYP1B1 [3]): 79%
inhibition at 25 min, 3 µM (CYP1A1 [4]): 5%

COc1ccc(-c2cc3c(cc2OC)CC[C@@H]2[C@@H]3CC[C@]3(C)[C@@H](OC)CC[C@@H]23)cc1
inhibition at 0.75 h, 3 µM (CYP1B1 [1]): 20%
inhibition at 25 min, 0.3 µM (CYP1A1 [2]): 1%
inhibition at 0.75 h, 0.3 µM (CYP1B1 [3]): 11%
inhibition at 25 min, 3 µM (CYP1A1 [4]): 5%
